Ends that are not written are not given here.
What was measured:
rabbit RyR1 = assay: Cryo-EM of RyR1 incubated with calcin variant (density for peptide); assay type: binding; details: activating conditions (Ca2+, ATP, caffeine, CaM1234), incubation up to an hour
Protocol: For activating conditions (datasets 3 to 5), RyR1 samples were diluted to contain 30 μM buffered free Ca^2+, 80 μM CaM1234, 5 mM caffeine, and 8 mM (dataset 3) or 5 mM (datasets 4 and 5) ATP. Purified IpCa (powder) was first diluted to 1 mM in buffer S5 without EGTA or Ca^2+ and then added to the RyR1 samples to a final concentration of 30 to 80 μM. Samples were incubated in the presence of IpCa (including pT26 and T26E) up to an hour before plunging. RyR1 particles from each condition were assessed by negative-stain EM. Four microliters of purified RyR1 diluted to 0.01 to 0.05 mg/ml was applied to glow-discharged 400-mesh copper grids (Electron Microscopy Sciences) and stained with 0.7% (w/v %) uranyl formate. Negatively stained EM grids were imaged on a Tecnai G2 Spirit microscope (Thermo Fisher Scientific) operated at 120 kV or a Talos with a Ceta camera operated at 120 kV.
For cryo-EM, RyR1 samples with a final concentration of 10 to 12 mg/ml were used. The samples were applied to holey carbon R2/2 grids (Quantifoil). Grids were blotted for 3 s with −5 to −15 blot force applied and subsequently flash-frozen with liquid ethane using a Vitrobot IV (Thermo Fisher Scientific). Grids were transferred to a Titan Krios G2 electron microscope (Thermo Fisher Scientific) operating at 300 kV. […]

RyR1 = molecular target: T1, RyR1 (Oryctolagus cuniculus, UniProt P11716); assay: [3H]ryanodine binding to skeletal muscle heavy SR vesicles; assay type: biochemical, rabbit; details: skeletal muscle heavy SR vesicles, no phosphatase inhibitors
T1 construct: from tissue; host or cells: rabbit skeletal muscle heavy SR vesicles

RyRs = details: higher concentrations of ryanodine; cited from earlier work
Text: Subconducting states have also been observed in the presence of low concentrations of ryanodine. At higher concentrations, however, addition of ryanodine results in full block ([25]). […] A previous cryo-EM study has resolved density for ryanodine in the pore-forming region, inside the inner vestibule below Gln^4933 ([15]). As this site is >13 Å away from IpCa, ryanodine and IpCa can bind to RyRs simultaneously (fig. S12). Whereas IpCa causes ...

T1 sequence (P11716 whole entry): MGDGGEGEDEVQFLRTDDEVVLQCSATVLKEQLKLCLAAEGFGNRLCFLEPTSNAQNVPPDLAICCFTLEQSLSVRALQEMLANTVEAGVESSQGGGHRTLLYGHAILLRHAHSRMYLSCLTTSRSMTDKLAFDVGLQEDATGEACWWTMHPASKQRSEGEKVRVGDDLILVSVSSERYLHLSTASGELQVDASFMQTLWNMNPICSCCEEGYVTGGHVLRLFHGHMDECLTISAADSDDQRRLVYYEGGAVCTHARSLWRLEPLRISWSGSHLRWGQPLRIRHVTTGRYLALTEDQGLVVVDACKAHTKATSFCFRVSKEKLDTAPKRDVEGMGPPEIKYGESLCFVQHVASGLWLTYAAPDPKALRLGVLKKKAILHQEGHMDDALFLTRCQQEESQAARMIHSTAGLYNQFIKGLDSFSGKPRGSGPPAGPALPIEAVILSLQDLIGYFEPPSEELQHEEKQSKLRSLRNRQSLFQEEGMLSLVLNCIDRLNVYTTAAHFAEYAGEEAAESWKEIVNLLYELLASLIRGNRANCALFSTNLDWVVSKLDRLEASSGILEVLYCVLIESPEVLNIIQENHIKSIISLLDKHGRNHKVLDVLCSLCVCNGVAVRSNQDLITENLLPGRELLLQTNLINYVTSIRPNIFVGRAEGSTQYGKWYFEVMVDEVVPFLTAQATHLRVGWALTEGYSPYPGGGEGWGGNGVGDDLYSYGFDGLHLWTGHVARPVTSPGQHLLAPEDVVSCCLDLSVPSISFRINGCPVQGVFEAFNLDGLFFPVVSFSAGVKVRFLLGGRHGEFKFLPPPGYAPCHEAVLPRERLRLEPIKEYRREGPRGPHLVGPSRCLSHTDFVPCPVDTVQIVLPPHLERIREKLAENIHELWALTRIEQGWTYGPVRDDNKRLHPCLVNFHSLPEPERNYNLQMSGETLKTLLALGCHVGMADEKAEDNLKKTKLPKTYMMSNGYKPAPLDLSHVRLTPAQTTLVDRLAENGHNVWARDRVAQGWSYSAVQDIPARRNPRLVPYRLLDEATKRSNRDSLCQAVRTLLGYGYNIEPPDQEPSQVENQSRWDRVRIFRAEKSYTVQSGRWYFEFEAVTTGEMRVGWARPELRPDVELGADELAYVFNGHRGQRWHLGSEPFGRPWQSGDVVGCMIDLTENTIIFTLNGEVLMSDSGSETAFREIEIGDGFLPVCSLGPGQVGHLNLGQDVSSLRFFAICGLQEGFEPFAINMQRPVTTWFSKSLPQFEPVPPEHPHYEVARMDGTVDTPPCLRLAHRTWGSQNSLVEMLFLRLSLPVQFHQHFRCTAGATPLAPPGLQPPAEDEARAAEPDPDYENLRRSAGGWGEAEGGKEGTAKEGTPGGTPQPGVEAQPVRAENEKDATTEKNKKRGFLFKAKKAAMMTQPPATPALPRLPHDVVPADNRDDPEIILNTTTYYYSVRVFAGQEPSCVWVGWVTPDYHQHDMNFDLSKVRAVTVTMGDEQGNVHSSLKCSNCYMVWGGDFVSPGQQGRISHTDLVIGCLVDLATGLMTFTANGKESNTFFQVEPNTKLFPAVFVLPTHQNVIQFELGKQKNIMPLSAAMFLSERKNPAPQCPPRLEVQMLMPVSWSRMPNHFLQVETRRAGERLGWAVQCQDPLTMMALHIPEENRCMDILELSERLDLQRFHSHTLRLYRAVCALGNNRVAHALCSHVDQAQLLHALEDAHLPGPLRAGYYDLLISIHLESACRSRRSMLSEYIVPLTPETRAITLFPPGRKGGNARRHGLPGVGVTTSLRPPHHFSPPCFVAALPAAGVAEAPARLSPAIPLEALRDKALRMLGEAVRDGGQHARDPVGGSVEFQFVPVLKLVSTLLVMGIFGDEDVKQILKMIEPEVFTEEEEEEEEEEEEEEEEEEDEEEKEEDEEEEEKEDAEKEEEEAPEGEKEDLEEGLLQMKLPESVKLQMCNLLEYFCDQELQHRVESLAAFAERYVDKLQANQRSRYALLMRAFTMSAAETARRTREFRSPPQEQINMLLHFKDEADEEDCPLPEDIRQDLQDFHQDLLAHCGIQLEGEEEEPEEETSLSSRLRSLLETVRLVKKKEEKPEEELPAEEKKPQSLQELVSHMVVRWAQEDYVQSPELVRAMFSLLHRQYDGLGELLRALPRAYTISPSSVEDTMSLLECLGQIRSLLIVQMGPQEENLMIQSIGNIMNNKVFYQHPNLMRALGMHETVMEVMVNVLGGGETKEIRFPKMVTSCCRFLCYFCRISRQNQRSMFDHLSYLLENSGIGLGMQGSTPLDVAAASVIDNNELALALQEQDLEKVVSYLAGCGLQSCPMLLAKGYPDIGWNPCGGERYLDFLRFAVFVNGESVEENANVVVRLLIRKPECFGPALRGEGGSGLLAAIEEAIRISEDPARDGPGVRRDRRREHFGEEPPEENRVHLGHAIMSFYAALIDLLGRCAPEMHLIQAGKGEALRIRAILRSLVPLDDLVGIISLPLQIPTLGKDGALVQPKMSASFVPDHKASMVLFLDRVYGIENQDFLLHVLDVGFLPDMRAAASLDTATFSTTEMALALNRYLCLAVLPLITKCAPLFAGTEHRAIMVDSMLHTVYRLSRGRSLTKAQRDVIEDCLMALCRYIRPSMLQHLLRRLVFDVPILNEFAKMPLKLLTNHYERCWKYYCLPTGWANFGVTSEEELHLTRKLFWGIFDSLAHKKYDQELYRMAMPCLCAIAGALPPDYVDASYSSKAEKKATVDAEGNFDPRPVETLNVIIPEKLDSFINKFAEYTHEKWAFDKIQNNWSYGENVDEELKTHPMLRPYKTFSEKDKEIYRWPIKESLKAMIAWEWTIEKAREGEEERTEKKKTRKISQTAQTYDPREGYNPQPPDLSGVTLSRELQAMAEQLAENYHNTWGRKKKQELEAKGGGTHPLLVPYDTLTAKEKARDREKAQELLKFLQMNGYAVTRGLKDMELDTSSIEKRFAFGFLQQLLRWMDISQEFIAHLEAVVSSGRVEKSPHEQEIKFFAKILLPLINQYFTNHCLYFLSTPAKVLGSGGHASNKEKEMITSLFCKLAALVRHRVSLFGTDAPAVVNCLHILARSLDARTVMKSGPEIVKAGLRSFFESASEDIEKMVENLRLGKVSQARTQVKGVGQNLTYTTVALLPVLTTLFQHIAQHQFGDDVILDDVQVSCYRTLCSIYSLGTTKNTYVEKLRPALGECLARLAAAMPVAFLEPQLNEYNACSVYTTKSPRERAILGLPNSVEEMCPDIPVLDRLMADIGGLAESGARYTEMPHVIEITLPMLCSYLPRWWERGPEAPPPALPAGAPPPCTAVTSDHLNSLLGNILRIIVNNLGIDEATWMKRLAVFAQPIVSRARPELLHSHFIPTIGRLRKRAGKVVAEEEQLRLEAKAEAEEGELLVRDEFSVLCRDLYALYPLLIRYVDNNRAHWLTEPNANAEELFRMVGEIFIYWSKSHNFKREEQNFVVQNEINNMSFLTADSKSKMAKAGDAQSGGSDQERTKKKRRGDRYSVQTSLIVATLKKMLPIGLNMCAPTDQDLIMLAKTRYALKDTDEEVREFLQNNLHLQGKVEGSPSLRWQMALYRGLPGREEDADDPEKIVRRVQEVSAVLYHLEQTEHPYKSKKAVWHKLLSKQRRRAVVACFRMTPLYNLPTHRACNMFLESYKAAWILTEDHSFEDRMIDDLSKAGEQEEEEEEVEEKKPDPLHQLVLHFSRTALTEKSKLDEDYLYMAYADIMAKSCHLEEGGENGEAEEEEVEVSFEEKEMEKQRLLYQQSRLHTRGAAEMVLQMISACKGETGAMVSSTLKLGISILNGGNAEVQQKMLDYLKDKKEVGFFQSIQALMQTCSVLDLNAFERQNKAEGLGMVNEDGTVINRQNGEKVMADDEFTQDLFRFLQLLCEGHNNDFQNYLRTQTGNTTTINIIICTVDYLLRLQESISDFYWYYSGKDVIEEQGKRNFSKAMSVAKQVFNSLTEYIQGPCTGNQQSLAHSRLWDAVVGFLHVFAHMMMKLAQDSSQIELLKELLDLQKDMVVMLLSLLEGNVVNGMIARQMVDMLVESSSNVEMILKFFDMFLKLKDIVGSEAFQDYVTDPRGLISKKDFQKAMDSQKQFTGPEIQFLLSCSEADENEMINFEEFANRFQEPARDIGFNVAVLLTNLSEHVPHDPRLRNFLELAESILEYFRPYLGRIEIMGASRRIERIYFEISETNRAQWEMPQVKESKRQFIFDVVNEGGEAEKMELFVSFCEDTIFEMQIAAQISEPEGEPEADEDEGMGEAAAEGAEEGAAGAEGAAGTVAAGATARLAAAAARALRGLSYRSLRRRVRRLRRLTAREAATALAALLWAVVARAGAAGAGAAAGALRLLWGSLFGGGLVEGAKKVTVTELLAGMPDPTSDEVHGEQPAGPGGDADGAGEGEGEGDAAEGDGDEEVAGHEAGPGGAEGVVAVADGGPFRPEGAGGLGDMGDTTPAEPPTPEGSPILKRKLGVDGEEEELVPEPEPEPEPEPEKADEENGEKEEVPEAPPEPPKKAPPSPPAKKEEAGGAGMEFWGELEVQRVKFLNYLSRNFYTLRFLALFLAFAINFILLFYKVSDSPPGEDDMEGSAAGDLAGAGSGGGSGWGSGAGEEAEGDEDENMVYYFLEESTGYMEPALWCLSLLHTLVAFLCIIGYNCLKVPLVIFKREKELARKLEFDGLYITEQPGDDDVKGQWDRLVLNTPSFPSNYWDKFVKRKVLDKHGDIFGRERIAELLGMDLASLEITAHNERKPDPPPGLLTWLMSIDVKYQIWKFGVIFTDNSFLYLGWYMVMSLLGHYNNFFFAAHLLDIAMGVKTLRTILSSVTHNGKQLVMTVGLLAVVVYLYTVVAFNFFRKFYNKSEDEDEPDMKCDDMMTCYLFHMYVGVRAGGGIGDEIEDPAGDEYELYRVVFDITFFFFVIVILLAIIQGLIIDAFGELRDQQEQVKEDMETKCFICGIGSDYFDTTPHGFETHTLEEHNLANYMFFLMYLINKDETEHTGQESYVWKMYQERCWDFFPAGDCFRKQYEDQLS

Substance	Cryo-EM density for the peptide bound to RyR1 (rabbit RyR1)	Effect on [3H]ryanodine binding (RyR1)	Effect on channel conductance at higher concentrations (RyRs)
IpCa-T26E: IpCa variant containing a phosphomimetic (T26E) (GDCLPHLKRCKADNDCCGKKCKRRGENAEKRCR; disulfide (positions not given here); not fully specified; ends not checked; UniProt P59868 1-33, looked up, variant T26E)	failed to show any density for IpCa	completely inert	–
ryanodine	–	–	full block

— publication PMC10208580 (Science Advances, 2023)
